Data reported in BindingDB's records for PubMed 7616392 (Sanofi Recherche, 1995).

Target: T1, Neuromedin-K receptor (Homo sapiens, UniProt P29371)
T1 sequence (P29371 whole entry): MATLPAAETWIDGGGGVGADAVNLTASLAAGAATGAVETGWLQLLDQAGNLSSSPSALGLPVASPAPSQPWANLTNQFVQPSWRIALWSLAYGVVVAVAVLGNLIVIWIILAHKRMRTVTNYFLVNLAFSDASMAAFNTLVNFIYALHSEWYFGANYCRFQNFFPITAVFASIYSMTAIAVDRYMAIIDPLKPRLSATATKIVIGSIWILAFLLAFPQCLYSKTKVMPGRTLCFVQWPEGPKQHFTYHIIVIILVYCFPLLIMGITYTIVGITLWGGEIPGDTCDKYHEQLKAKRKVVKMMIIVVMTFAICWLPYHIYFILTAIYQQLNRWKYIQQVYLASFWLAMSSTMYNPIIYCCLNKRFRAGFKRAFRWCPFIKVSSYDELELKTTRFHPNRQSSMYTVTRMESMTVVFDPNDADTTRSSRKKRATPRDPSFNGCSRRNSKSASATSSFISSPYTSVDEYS

Row | SMILES | Ki [µM]
1 | CC(=O)NC1(c2ccccc2)CCN(CCC(CN(C)C(=O)c2ccccc2)c2ccc(Cl)c(Cl)c2)CC1 (configuration not stated) [SR 48968] | 0.368
2 | CC(C)Oc1cccc(CC(=O)N2CCC[C@](CC[N+]34CCC(c5ccccc5)(CC3)CC4)(c3ccc(Cl)c(Cl)c3)C2)c1 | 1.08
